In PubChem BioAssay AID256 (DTP/NCI, 2004):
Several values for one entry are separate records, joined by “and”; a condition that tells them apart may be missing. Equal entries are not always repeated. Toxic doses and inconclusive results are not listed. The calls were made as follows: active = survival T/C of 150% or more; inactive = T/C below 125% in these data.

Test system: CD2F1 mice, L1210 leukemia ip, survival T/C
Test: NCI In Vivo Anticancer Drug Screen. Data for tumor model L1210 Leukemia (intraperitoneal) in CD2F1 (CDF1) mice
Conditions: higher = longer survival
Summary of the method: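 Read-out first: treated-group measurement over vehicle-control measurement, expressed as a ratio. Animals bore a transplanted tumor line and were dosed with compound or vehicle.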

[1] = endpoint: mean survival time, dose: 100.0 mg/kg/injection, schedule: Q04DX002 (ip), vehicle: saline with Tween-80
[2] = endpoint: mean survival time, dose: 100.0 mg/kg/injection, schedule: Q04DX003 (ip), vehicle: saline with Tween-80
[3] = endpoint: mean survival time, dose: 200.0 mg/kg/injection, schedule: Q04DX002 (ip), vehicle: saline with Tween-80
[4] = endpoint: mean survival time, dose: 200.0 mg/kg/injection, schedule: Q04DX003 (ip), vehicle: saline with Tween-80
[5] = endpoint: mean survival time, dose: 400.0 mg/kg/injection, schedule: Q04DX002 (ip), vehicle: saline with Tween-80
[6] = endpoint: mean survival time, dose: 400.0 mg/kg/injection, schedule: Q04DX003 (ip), vehicle: saline with Tween-80
[7] = endpoint: mean survival time, dose: 100.0 mg/kg/injection, schedule: Q01DX009 (ip), vehicle: saline with Tween-80
[8] = endpoint: mean survival time, dose: 200.0 mg/kg/injection, schedule: Q01DX009 (ip), vehicle: saline with Tween-80
[9] = endpoint: mean survival time, dose: 400.0 mg/kg/injection, schedule: Q01DX009 (ip), vehicle: saline with Tween-80
[10] = endpoint: mean survival time, dose: 100.0 mg/kg/injection, schedule: Q01DX001 (ip), vehicle: saline with Tween-80
[11] = endpoint: mean survival time, dose: 200.0 mg/kg/injection, schedule: Q01DX001 (ip), vehicle: saline with Tween-80
[12] = endpoint: mean survival time, dose: 400.0 mg/kg/injection, schedule: Q01DX001 (ip), vehicle: saline with Tween-80

Measured: T/C

CN(C)CCCC1c2ccccc2Oc2ccc(C(F)(F)F)cc21 (centres undefined)
inactive: endpoint: mean survival time, dose: 1.56 mg/kg/injection, schedule: Q01DX009 (ip), vehicle: saline 96 % of control | endpoint: mean survival time, dose: 3.12 mg/kg/injection, schedule: Q01DX009 (ip), vehicle: saline 100 % of control | endpoint: mean survival time, dose: 6.25 mg/kg/injection, schedule: Q01DX009 (ip), vehicle: saline 94 % of control | endpoint: mean survival time, dose: 12.5 mg/kg/injection, schedule: Q01DX009 (ip), vehicle: saline 100 % of control | endpoint: mean survival time, dose: 25.0 mg/kg/injection, schedule: Q01DX009 (ip), vehicle: saline 103 % of control

CC1(C)COC(CC2(O)CCCCCC2)=N1
inactive: [1] 101 % of control | [2] 95 % of control | [3] 96 % of control | [4] 88 % of control | [5] 101 % of control | [6] 93 % of control

O=C(/C=C/c1ccc(OCc2ccccc2)c(OCc2ccccc2)c1)OCc1ccccc1
inactive: endpoint: mean survival time, dose: 25.0 mg/kg/injection, schedule: Q04DX002 (ip), vehicle: saline with Tween-80 102 % of control | endpoint: mean survival time, dose: 50.0 mg/kg/injection, schedule: Q04DX002 (ip), vehicle: saline with Tween-80 91 % of control | [1] 95 % of control | [3] 95 % of control

NC(=O)c1cc(NCCN2CCCCC2)c([N+](=O)[O-])cc1[N+](=O)[O-]
inactive: [1] 95 % of control | [3] 95 % of control | [5] 95 % of control

CC1CC(OC(=O)c2ccccc2)CCC1=O (centres undefined)
inactive: endpoint: mean survival time, dose: 5.0 mg/kg/injection, schedule: Q01DX001 (ip), vehicle: other 102 % of control | endpoint: mean survival time, dose: 10.0 mg/kg/injection, schedule: Q01DX001 (ip), vehicle: other 106 % of control | endpoint: mean survival time, dose: 20.0 mg/kg/injection, schedule: Q01DX001 (ip), vehicle: other 103 % of control | endpoint: mean survival time, dose: 40.0 mg/kg/injection, schedule: Q01DX001 (ip), vehicle: other 108 % of control | endpoint: mean survival time, dose: 80.0 mg/kg/injection, schedule: Q01DX001 (ip), vehicle: other 96 % of control

C=C(C#N)C(=O)OCC(CC)CC.C=C(C#N)C(=O)OCC(CC)CC.CS(C)=O.CS(C)=O.Nc1c(N=Nc2ccc(-c3ccc(N=Nc4cc(S(=O)(=O)[O-])c5ccccc5c4N)cc3)cc2)cc(S(=O)(=O)[O-])c2ccccc12.[Pt+2]
inactive: endpoint: median survival time, dose: 3.12 mg/kg/injection, schedule: Q04DX003 (ip), vehicle: saline with Tween-80 95 % of control | endpoint: median survival time, dose: 6.25 mg/kg/injection, schedule: Q04DX003 (ip), vehicle: saline with Tween-80 106 % of control | endpoint: median survival time, dose: 12.5 mg/kg/injection, schedule: Q04DX003 (ip), vehicle: saline with Tween-80 108 % of control | endpoint: median survival time, dose: 25.0 mg/kg/injection, schedule: Q04DX003 (ip), vehicle: saline with Tween-80 100 % of control | endpoint: median survival time, dose: 50.0 mg/kg/injection, schedule: Q04DX003 (ip), vehicle: saline with Tween-80 97 % of control | endpoint: median survival time, dose: 100.0 mg/kg/injection, schedule: Q04DX003 (ip), vehicle: saline with Tween-80 98 % of control | endpoint: median survival time, dose: 200.0 mg/kg/injection, schedule: Q04DX003 (ip), vehicle: saline with Tween-80 90 % of control

CC(=O)c1ccc2c(c1)-c1ccc(C(C)=O)cc1-2
inactive: [2] 86 % of control | [4] 86 % of control | [6] 90 % of control

O=S(=O)(O)c1cncc(S(=O)(=O)O)n1
inactive: endpoint: mean survival time, dose: 100.0 mg/kg/injection, schedule: Q01DX009 (ip), vehicle: saline 90 % of control | endpoint: mean survival time, dose: 100.0 mg/kg/injection, schedule: Q04DX003 (ip), vehicle: saline 100 % of control | endpoint: mean survival time, dose: 200.0 mg/kg/injection, schedule: Q01DX009 (ip), vehicle: saline 97 % of control | endpoint: mean survival time, dose: 200.0 mg/kg/injection, schedule: Q04DX003 (ip), vehicle: saline 98 % of control | endpoint: mean survival time, dose: 400.0 mg/kg/injection, schedule: Q01DX009 (ip), vehicle: saline 100 % of control | endpoint: mean survival time, dose: 400.0 mg/kg/injection, schedule: Q04DX003 (ip), vehicle: saline 93 % of control

CC12CCCCC1CCC(Br)C2=O (centres undefined)
inactive: [2] 102 % of control | [4] 100 % of control | [6] 102 % of control

O=C1c2ccccc2C(=O)N1Cc1ccccc1
inactive: [7] 105 % of control | [8] 100 % of control | [9] 103 % of control

COc1cc(NCCCCCCCNC(C)C)c2nccc(C)c2c1
inactive: endpoint: median survival time, dose: 3.12 mg/kg/injection, schedule: Q01DX009 (ip), vehicle: saline 98 % of control | endpoint: median survival time, dose: 6.25 mg/kg/injection, schedule: Q01DX009 (ip), vehicle: saline 102 % of control | endpoint: median survival time, dose: 12.5 mg/kg/injection, schedule: Q01DX009 (ip), vehicle: saline 97 % of control

CCCCCCCCCCCCCCCC(=O)N(CCCN(CC)CC)C(C)CCCN(CC)CC (centres undefined)
inactive: endpoint: mean survival time, dose: 1.56 mg/kg/injection, schedule: Q01DX009 (ip), vehicle: water 102 % of control | endpoint: mean survival time, dose: 3.13 mg/kg/injection, schedule: Q01DX009 (ip), vehicle: water 100 % of control | endpoint: mean survival time, dose: 6.25 mg/kg/injection, schedule: Q01DX009 (ip), vehicle: water 96 % of control

O=c1cc(-c2ccccc2)[nH]c(-c2ccccc2)c1
inactive: [10] 100 % of control | [7] 89 % of control | [2] 89 % of control | [11] 88 % of control | [8] 88 % of control | [4] 93 % of control | [12] 89 % of control | [6] 86 % of control

COc1cccc2c1C(=O)c1c(O)c3c(c(O)c1C2=O)C[C@@](O)(C(=O)CN1CCOCC1)C[C@@H]3OC1CC(N)C(O)C(C)O1 (some centres undefined)
inactive: endpoint: mean survival time, dose: 6.25 mg/kg/injection, schedule: Q04DX003 (ip), vehicle: water 90 % of control | endpoint: mean survival time, dose: 12.5 mg/kg/injection, schedule: Q04DX003 (ip), vehicle: water 91 % of control | endpoint: mean survival time, dose: 25.0 mg/kg/injection, schedule: Q04DX003 (ip), vehicle: water 105 % of control | endpoint: mean survival time, dose: 50.0 mg/kg/injection, schedule: Q04DX003 (ip), vehicle: water 91 % of control

O=C(O)C(O)(c1ccccc1)C1CCCC1 (centres undefined)
inactive: [8] 109 % of control | [9] 112 % of control

Cc1cc(C)c(O)c(C(=O)CC2CC(=O)NC(=O)C2)c1
inactive: [7] 100 % of control | [2] 95 % of control | [8] 105 % of control | [4] 97 % of control | [9] 101 % of control | [6] 95 % of control

CC(=O)OC1CC2CCC1(C)C2(C)C (centres undefined)
inactive: [2] 101 % of control | [4] 95 % of control

c1cc2c3c(cccc3c1)C1C2C2c3cccc4cccc(c34)C12 (centres undefined)
inactive: [10] 93 % of control | [11] 97 % of control | [12] 100 % of control

COC(=O)c1[nH]cnc1/N=N/N(C)C.[Cl][Cu][Cl]
inactive: endpoint: mean survival time, dose: 2.5 mg/kg/injection, schedule: Q01DX001 (ip), vehicle: saline 98 % of control | endpoint: mean survival time, dose: 5.0 mg/kg/injection, schedule: Q01DX001 (ip), vehicle: saline 92 % of control | endpoint: mean survival time, dose: 10.0 mg/kg/injection, schedule: Q01DX001 (ip), vehicle: saline 88 % of control and 96 % of control | endpoint: mean survival time, dose: 20.0 mg/kg/injection, schedule: Q01DX001 (ip), vehicle: saline 111 % of control

O=C(O)CCCCc1ccccc1
inactive: [7] 93 % of control | [2] 106 % of control | [8] 98 % of control | [4] 92 % of control | [9] 102 % of control | [6] 106 % of control

CC(C)(C)C1CC[N-]CC1.CC(C)(C)C1CC[N-]CC1.[Cl][Pt+2][Cl]
inactive: endpoint: mean survival time, dose: 75.0 mg/kg/injection, schedule: Q04DX002 (ip), vehicle: saline with Tween-80 95 % of control | endpoint: mean survival time, dose: 150.0 mg/kg/injection, schedule: Q04DX002 (ip), vehicle: saline with Tween-80 98 % of control | endpoint: mean survival time, dose: 300.0 mg/kg/injection, schedule: Q04DX002 (ip), vehicle: saline with Tween-80 107 % of control
